Test system: Normal Human Astrocytes (NHA)
Test: Long-term culturing of human astrocytes using medium containing inhibitor (Example 1)
Format: cell-based
Conditions: for Number of days up to day of final passage / Passage number: NHA, 41 days of culturing, Y 10 μM, A 0.5 μM
Description: Long-term culturing of human astrocytes was performed using the following materials, reagents, and products for culturing.
• Normal Human Astrocytes (NHA) (CC-2565, Lonza Group AG)
• Culture medium: AGM Astrocyte Growth Medium Bullet Kit (CC-3186, Lonza Group AG) (composition of AGM: basal medium, FBS (3% (v/v)), L-glutamine, ascorbic acid, hEGF, insulin, and antibiotic) • Inhibitor Y: CultureSure (registered trademark) Y-27632 (034-24024, FUJIFILM Wako Pure Chemical Corporation), final concentration: 10 μM • Inhibitor A: CultureSure (registered trademark) A-83-01(035-24113, FUJIFILM Wako Pure Chemical Corporation), final concentration: 0.5 μM • Cell detachment agent: Accutase (AT104, Innovative Cell Technologies, Inc.) • Cell buffer: phosphate buffered saline (Dulbecco's formula; without calcium and magnesium) (BNDSBN200, KAC Co., Ltd.) • Medium for cell freezing: CELLBANKER 1 (CB011 TaKaRa Bio Inc. (NIPPON ZENYAKU KOGYO CO., LTD.)) • Cell culturing dish 60 mm (150462, Thermo Fisher Scientific Inc.) • Cell culturing dish 100 mm (150466, Thermo Fisher Scientific Inc.) • Cell culturing dish 150 mm (150468, Thermo Fisher Scientific Inc.) • Stericup Quick Release-GP Sterile Vacuum Filtration System (S2GPU02RE, Merck Millipore) • Inhibitor-free medium for culture supernatant collection: Dulbecco's Modied Eagle Medium (DMEM) (C11995500CP, Gibco (registered trademark), Thermo Fisher Scientific Inc.) and N-2 Supplement (x100) (17502-048, Gibco (registered trademark), Thermo Fisher Scientific Inc.)
The long-term culturing was performed in accordance with the following procedure. A frozen tube of the human astrocyte cells (NHA) was thawed in a water bath at 37° C. Next, the lysed cells were transferred to the culture medium so that the total volume was 10 mL and subjected to centrifugation at 180×g for 3 minutes at room temperature, and then the medium was removed. The cells were divided into 4 groups; a group to which only the inhibitor Y was added (hereinafter, the NHA-Y group), a group to which only the inhibitor A was added (hereinafter, the NHA-A group), a group to which the inhibitor Y and the inhibitor A were added (hereinafter, the NHA-YA group), and a group to Ih no inhibitor was added (normal group).
The medium was replaced every other day or every two days with fresh culture medium containing each inhibitor (or not containing any inhibitor). When the confluency reached 80 to 90%, the cells were detached using the cell detachment agent, and the cells were suspended in the culture medium containing each inhibitor (or not containing any inhibitor) and passaged into a 6-well plate at a seeding density of 4.2×10^3 cells/cm^2. While continuing the passaging, the culturing was performed for 41 days in the culture medium containing each inhibitor (or not containing any inhibitor).
The cell passage number and the number of days up to the day of final passage in each group are indicated in the following Table 1, and the correlations between the number of culturing days and the total number of cells are indicated in Table 2.

Cc1cccc(-c2nn(C(=S)Nc3ccccc3)cc2-c2ccnc3ccccc23)n1 [A, 3-(6-methylpyridin-2-yl)-4-(4-quinolyl)-1-phenylthiocarbamoyl-1H-pyrazole]
Number of days up to day of final passage: 30 days | Passage number: 4 times | Number of cells (culturing day 0): 8.00 ×10^4 cells | Number of cells (culturing day 5): 55.75 ×10^4 cells | Number of cells (culturing day 15): 264.81 ×10^4 cells | Number of cells (culturing day 23): 595.83 ×10^4 cells | Number of cells (culturing day 30): 1005.46 ×10^4 cells

C[C@@H](N)[C@H]1CC[C@H](C(=O)Nc2ccncc2)CC1 [Y]
Number of days up to day of final passage: 29 days | Passage number: 5 times | Number of cells (culturing day 0): 8.00 ×10^4 cells | Number of cells (culturing day 5): 87.25 ×10^4 cells | Number of cells (culturing day 8): 245.39 ×10^4 cells | Number of cells (culturing day 13): 391.09 ×10^4 cells | Number of cells (culturing day 19): 733.30 ×10^4 cells | Number of cells (culturing day 29): 756.21 ×10^4 cells

From US20240360409A1, “METHOD FOR PRODUCING HIGHLY PROLIFERATIVE CELL, AND HIGHLY PROLIFERATIVE CELL AND USE THEREOF” (TOKYO MEDICAL UNIVERSITY, priority 2021, published 2024)
